ChEMBL document CHEMBL4342420, “Discovery of AM-6494: A Potent and Orally Efficacious β-Site Amyloid Precursor Protein Cleaving Enzyme 1 (BACE1) Inhibitor with in Vivo Selectivity over BACE2” (J Med Chem, 2020)
Blank lines part the entries; values can stand above or below the compound they belong to.

Legend:
[1] = Stability in rat liver microsomes at 1 uM measured after 30 mins in presence of NADPH; assay type: ADME, Microsome; details: read-out: Stability
[2] = Stability in human liver microsomes at 1 uM measured after 30 mins in presence of NADPH; assay type: ADME, Microsome; details: read-out: Stability
[3] = Volume of distribution at steady state in rat at 1 mg/kg, iv; assay type: ADME, organism-based; details: in vivo, read-out: Vdss
[4] = Clearance in monkey at 1 mg/kg, iv; assay type: ADME, organism-based, Macaca mulatta; details: rhesus monkey, in vivo
[5] = Half life in Beagle dog at 1 mg/kg, iv; assay type: ADME, organism-based, Canis lupus familiaris; details: in vivo
[6] = Oral bioavailability in cynomolgus monkey at 3 mg/kg; assay type: ADME, organism-based, Macaca fascicularis; details: in vivo
[7] = Volume of distribution at steady state in Beagle dog at 1 mg/kg, iv; assay type: ADME, organism-based, Canis lupus familiaris; details: in vivo, read-out: Vdss
[8] = Half life in rat at 1 mg/kg, iv; assay type: ADME, organism-based; details: in vivo
[9] = Stability in monkey liver microsomes at 0.5 uM measured after 30 mins in presence of NADPH; assay type: ADME, Macaca mulatta, Microsome; details: rhesus monkey, read-out: Stability
[10] = Oral bioavailability in Beagle dog at 10 mg/kg; assay type: ADME, organism-based, Canis lupus familiaris; details: in vivo
[11] = Clearance in Beagle dog at 1 mg/kg, iv; assay type: ADME, organism-based, Canis lupus familiaris; details: in vivo
[12] = AUCt in rat at 3 mg/kg, po; assay type: ADME, organism-based; details: in vivo
[13] = Stability in dog liver microsomes at 0.5 uM measured after 30 mins in presence of NADPH; assay type: ADME, Canis lupus familiaris, Microsome; details: read-out: Stability
[14] = Half life in monkey at 1 mg/kg, iv; assay type: ADME, organism-based, Macaca mulatta; details: rhesus monkey, in vivo
[15] = Oral bioavailability in rat at 3 mg/kg; assay type: ADME, organism-based; details: in vivo
[16] = Volume of distribution at steady state in monkey at 1 mg/kg, iv; assay type: ADME, organism-based, Macaca mulatta; details: rhesus monkey, in vivo, read-out: Vdss
[17] = AUCt in Beagle dog at 10 mg/kg, po; assay type: ADME, organism-based, Canis lupus familiaris; details: in vivo
[18] = AUCt in cynomolgus monkey at 3 mg/kg, po; assay type: ADME, organism-based, Macaca fascicularis; details: in vivo
[19] = Free plasma concentration in depilated mouse at 100 mg/kg, po administered once daily for 13 days measured 24 hrs post-last dose; assay type: ADME, organism-based; details: in vivo
[20] = Clearance in rat at 1 mg/kg, iv; assay type: ADME, organism-based; details: in vivo
[21] = Free plasma concentration in depilated mouse at 30 mg/kg, po administered once daily for 13 days measured 24 hrs post-last dose; assay type: ADME, organism-based; details: in vivo
[22] = Free plasma concentration in depilated mouse at 10 mg/kg, po administered once daily for 13 days measured 24 hrs post-last dose; assay type: ADME, organism-based; details: in vivo
[23] = Free plasma concentration in depilated mouse at 120 mg/kg, po administered once daily for 13 days measured 24 hrs post-last dose; assay type: ADME, organism-based; details: in vivo

SMILES: C#CCOc1cnc(C(=O)Nc2cc(F)c(F)c([C@@]3(C)N=C(N)S[C@@]4(CF)C[C@H]43)c2)cn1
microsomal CLint at 1 µM [1]: 87 µL/min/mg
microsomal CLint at 1 µM [2]: 76 µL/min/mg

SMILES: C[C@]1(c2cc(NC(=O)c3ccc(Cl)cn3)cc(F)c2F)N=C(N)S[C@@]2(C(N)=O)C[C@H]21
microsomal CLint at 1 µM [1]: < 14 µL/min/mg
microsomal CLint at 1 µM [2]: < 14 µL/min/mg

SMILES: NC1=N[C@@]2(CO1)c1cc(-c3cccnc3F)ccc1Oc1c2cc(C2=CCCOC2)nc1F
Cp(f) [21]: 88 nM
Cp(f) [22]: 38 nM
Cp(f) [23]: 328 nM

Next, values leading:

microsomal CLint at 1 µM [1]: 156 µL/min/mg
microsomal CLint at 1 µM [2]: 29 µL/min/mg
SMILES: COC[C@]12C[C@H]1[C@@](C)(c1cc(NC(=O)c3cnc(OCCC(F)(F)F)cn3)cc(F)c1F)N=C(N)S2

Vd [3]: 1.7 L/kg
clearance [4]: 35 mL/min/kg
half-life [5]: 2 h
bioavailability [6]: 28%
Vd [7]: 3.2 L/kg
microsomal CLint at 1 µM [1]: 84 µL/min/mg
half-life [8]: 1.5 h
microsomal CLint at 0.5 µM [9]: 146 µL/min/mg
bioavailability [10]: 100%
clearance [11]: 15 mL/min/kg
AUCt [12]: 2.4 µM·h
microsomal CLint at 0.5 µM [13]: 62 µL/min/mg
half-life [14]: 8.3 h
bioavailability [15]: 48%
Vd [16]: 17 L/kg
AUCt [17]: 22 µM·h
microsomal CLint at 1 µM [2]: 41 µL/min/mg
AUCt [18]: 2.3 µM·h
Cp(f) [19]: 32 nM
clearance [20]: 21.7 mL/min/kg
SMILES: C#CCOc1cnc(C(=O)Nc2cc(F)c(F)c([C@@]3(C)N=C(N)S[C@@]4(COC)C[C@H]43)c2)cn1
